From patent publication US10576166B2, “Liver specific delivery of messenger RNA” (TRANSLATE BIO, INC., priority 2009, dated 2020)

Legend:
[1] = test system: firefly luciferase protein in livers and spleens; assay: Bioluminescence assay of expressed firefly luciferase in liver and spleen (biodistribution analysis); format: in vivo; details: female CD-1 mice, single 200 μg i.v. dose of encapsulated FFL mRNA, 4 hours post-injection
Experimental: (§1) All studies were performed using female CD-1 mice of approximately 3-weeks age at the beginning of each experiment. Samples were introduced by a single bolus tail-vein injection of an equivalent total dose of 200 μg of encapsulated FFL mRNA. Four hours post-injection the mice were sacrificed and perfused with saline.
(§2) The liver and spleen of each mouse was harvested, apportioned into three parts, and stored in either, (i) 10% neutral buffered formalin, (ii) snap-frozen and stored at −80° C. for bioluminescence analysis (see below), or for in situ hybridization studies, or (iii) liver sections were isolated in isopentane (2-methylbutane) bath, maintained at −35° C., rinsed with 1×PBS, lightly patted with a kimwipe to remove any excess fluid, placed in the bath for approximately 5-7 minutes, after which the liver was removed, wrapped in foil and stored in a small sterile plastic bag at −80° C. until ready for assay.
The bioluminescence assay was conducted using a Promega Luciferase Assay System (Item # E1500 Promega). […]
The Luciferase Assay Reagent was prepared by adding 10 mL of Luciferase Assay Buffer to Luciferase Assay Substrate and mix via vortex. […] Each plate was inserted into the appropriate chambers using a Molecular Device Flex Station instrument and measure the luminescence (measured in relative light units (RLU)). […]

[2] = test system: codon-optimized firefly luciferase mRNA in liver; assay: In situ hybridization of liver sections with 35S-labeled riboprobes; format: in vivo, CD-1 mice; details: livers of injected animals, 100× magnification, FIG. 4A
Experimental: as §1, §2
Slide preparation and analysis was performed as follows: Each liver was frozen at −35° C. according to the procedure described above. The frozen livers were cut into 6 micrometer sections and mounted onto glass microscope slides. […]
Photographic development was carried out in Kodak D-19. Sections were counterstained lightly with cresyl violet and analyzed using brightfield and darkfield microscopy. […]

[3] = test system: firefly luciferase protein in hepatocytes; assay: Immunohistochemical analysis of liver with anti-firefly antibody; format: in vivo; details: FFL mRNA in lipid transfer vehicle of cholesterol, DOPE, DLinDMA and DMG-PEG2000; treated mice, FIGS. 5B and 5C
From the text: FIG. 5 illustrates immunohistochemical staining of mouse livers for the detection of firefly luciferase protein. […] Luciferase protein is observed throughout the cytoplasm of the hepatocytes. The abbreviations (S) and (H) correspond to sinusoidal cells and hepatocytes, respectively.
The FFL mRNA was packaged and delivered via a lipid transfer vehicle formulation consisting of cholesterol, DOPE, DLinDMA, and DMG-PEG2000 in a manner similar to that described supra.
The translation of the FFL mRNA into its respective protein has been successfully identified via immunohistochemical analysis (FIG. 5).

Molecule | Luminescence / mRNA delivery in liver versus spleen [1] | Detection of FFL mRNA in liver, dark field illumination, antisense probe [2] | Detection of expressed firefly protein by immunohistochemistry [3]
CC(C)CCCC(C)C1CCC2C3CC=C4CC(OC(=O)CCc5cnc[nH]5)CCC4(C)C3CCC12C [ICE, (3S,10R,13R,17R)-10,13-dimethyl-17-((R)-6-methylheptan-2-yl)-2,3,4,7,8,9,10,11,12,13,14,15,16,17-tetradecahydro-1H-cyclopenta[a]phenanthren-3-yl 3-(1H-imidazol-4-yl)propanoate] | enriched delivery of mRNA to liver versus spleen | – | –
FFL mRNA: Codon-optimized firefly luciferase messenger RNA, SEQ ID NO: 1, with 5′ Cap1 and 3′ poly(A) tail of approximately 200 nucleotides | – | detected as bright spots | can be observed in the hepatocytes of treated mice
